The source of these data is US20140018435A1, “Transdermal Delivery of Therapeutic Agents Using Poly (Amidoamine) Dendrimers” (UNIVERSITY OF ILLINOIS CHICAGO, priority 2012, published 2014).

The conditions of series [1]: gel, cited from earlier work.
In series [2] the test system is breast cancer cell growth. The settings on record: tissue culture; cited from earlier work.
Series [3] concerns ER positive invasive breast cancer. The settings on record: gel, 0.5 or 1 mg per breast per day; cited from earlier work.
The conditions of series [4]: 24 hours dendrimer pre-treatment, then 5-FU in isopropyl myristate for 48 hrs; cited from earlier work.
The conditions of series [5]: after 24 hours of co-treatment; cited from earlier work.
For series [6] the following is noted: at pH 74; cited from earlier work.
The nature of series [7]: Franz diffusion cell skin permeation/retention, porcine skin. It is filed as in vitro ADME. The settings on record: detection limit 9 ng/mL.
For series [8] the following is noted: taken orally for five years; cited from earlier work.

Like-named read-outs stand apart in the source and are kept apart here. Some results are limits rather than exact numbers.

With 4-hydroxytamoxifen [4-OHT], in series [1] (0.5 mg per breast per day), the “plasma level as fraction of those seen after 20 mg of oral TAM” value was “approximately 1/30” and the “plasma levels of 4-OHT” value is 0.05 ng/mL. Besides, in series [1] (1 mg per breast per day), the “plasma level as fraction of those seen after 20 mg of oral TAM” value was 1/12 and the “plasma levels of 4-OHT” value is reported as 0.13 ng/mL. In addition, the “potency in suppressing breast cancer cell growth relative to TAM” value in series [2] was “two-log greater potency”. Also, the “reduction of Ki-67 labeling” value in series [3] is reported as “reduced the Ki-67 labeling to a similar degree as oral TAM”.

For `O=c1[nH]cc(F)c(=O)[nH]1` [5-FU, 5-fluorouracil], the “fold enhancement in permeability coefficient” value in series [4] is “Up to 4 fold”.

With `O=C(O)c1cc(-c2ccc(F)cc2F)ccc1O` [Diflunisal], in series [5], the “increase of accumulative permeated amount by complexing with PAMAM dendrimers, as compared to the free drug” value was 3.2 times.

As for `CC(C(=O)O)c1cccc(C(=O)c2ccccc2)c1` (stereo not drawn) [Ketoprofen], in series [5], the “increase of accumulative permeated amount by complexing with PAMAM dendrimers, as compared to the free drug” value is recorded as 3.4 times. In the case of `CCCCCCCC/C=C\CCCCCCCC(=O)O` [OA, oleic acid], the reported partition coefficient in series [6] is listed as 7.3.

As for `CC/C(=C(\c1ccc(O)cc1)c1ccc(OCCNC)cc1)c1ccccc1` [endoxifen], the “endoxifen collected from the receiver solution (RP-HPLC)” value in series [7] is under 9 ng/mL.

`CC/C(=C(\c1ccccc1)c1ccc(OCCN(C)C)cc1)c1ccccc1` [tamoxifen]: the “reduction of breast cancer risk” value in series [8] was “about 50%”.
